Data on 4 molecules can be found in ChEMBL document CHEMBL3046063, “Synthesis and antimicrobial activity of 5-chloroindoline-2,3-dione derivatives” (2012).

Converted amounts (≈) assume the structure as drawn.

By MIC is commonly meant the lowest concentration found to suppress growth. A high value points to a less susceptible organism.

Holding throughout (format): functional
For experiment [1], the system named is Aspergillus niger. As to the kind of experiment: Antimicrobial activity against Aspergillus niger ATCC 9142 after 24 hr by broth dilution method. Conditions: ATCC 9142, 24 h. On the technique in general: Broth dilution looks for growth in wells or tubes with falling amounts of substance.
Experiment [2] concerns Staphylococcus aureus. As to the kind of experiment: Antimicrobial activity against Staphylococcus aureus ATCC 25923 after 24 hr by broth dilution method. As to conditions: ATCC 25923, 24 h.
The subject of experiment [3] is Proteus vulgaris. Put plainly: Antimicrobial activity against Proteus vulgaris ATCC 13315 after 24 hr by broth dilution method. As to conditions: ATCC 13315, 24 h.
The subject of experiment [4] is Bacillus spizizenii. As to the kind of experiment: Antimicrobial activity against Bacillus subtilis subsp. spizizenii ATCC 6633 after 24 hr by broth dilution method. Conditions: ATCC 6633, 24 h.
For experiment [5], the system named is Staphylococcus hominis. Put plainly: Antimicrobial activity against Staphylococcus hominis ATCC 27844 after 24 hr by broth dilution method. As to conditions: ATCC 27844, 24 h.
Experiment [6] concerns Aspergillus flavus. Put plainly: Antimicrobial activity against Aspergillus flavus ATCC 15517 after 24 hr by broth dilution method. Conditions: ATCC 15517, 24 h.
Experiment [7] relates to Pseudomonas aeruginosa. Put plainly: Antimicrobial activity against Pseudomonas aeruginosa ATCC 10145 after 24 hr by broth dilution method. As to conditions: ATCC 10145, 24 h.
Experiment [8] deals with Proteus mirabilis. As to the kind of experiment: Antimicrobial activity against Proteus mirabilis ATCC 49565 after 24 hr by broth dilution method. Conditions: ATCC 49565, 24 h.
For experiment [9], the system named is Aspergillus fumigatus. As to the kind of experiment: Antimicrobial activity against Aspergillus fumigatus after 24 hr by broth dilution method.
Experiment [10] relates to Escherichia coli. As to the kind of experiment: Antimicrobial activity against Escherichia coli ATCC 25922 after 24 hr by broth dilution method. As to conditions: ATCC 25922, 24 h.
The subject of experiment [11] is Staphylococcus epidermidis. Put plainly: Antimicrobial activity against Staphylococcus epidermidis ATCC 12228 after 24 hr by broth dilution method. As to conditions: ATCC 12228, 24 h.
The test system of experiment [12] is Candida albicans. As to the kind of experiment: Antimicrobial activity against Candida albicans ATCC 10231 after 24 hr by broth dilution method. Conditions: ATCC 10231, 24 h.
In experiment [13] the test system is Alternaria alternata. As to the kind of experiment: Antimicrobial activity against Alternaria alternata ATCC 66868 after 24 hr by broth dilution method. As to conditions: ATCC 66868, 24 h.
For experiment [14], the system named is Salmonella typhi. Put plainly: Antimicrobial activity against Salmonella enterica subsp. enterica serovar Typhi ATCC 19430 after 24 hr by broth dilution method. Conditions: ATCC 19430, 24 h.
Experiment [15] deals with Bacillus pumilus. Put plainly: Antimicrobial activity against Bacillus pumilus ATCC 14884 after 24 hr by broth dilution method. Conditions: ATCC 14884, 24 h.
The test system of experiment [16] is Rhizoctonia solani. Put plainly: Antimicrobial activity against Rhizoctonia solani ATCC 76131 after 24 hr by broth dilution method. Conditions: ATCC 76131, 24 h.
Experiment [17] deals with Trichophyton longifusum. Put plainly: Antimicrobial activity against Trichophyton longifusum ATCC 22397 after 24 hr by broth dilution method. Conditions: ATCC 22397, 24 h.
The test system of experiment [18] is Trichoderma viride. Put plainly: Antimicrobial activity against Hypocrea rufa ATCC 52440 after 24 hr by broth dilution method. As to conditions: ATCC 52440, 24 h.
The subject of experiment [19] is Micrococcus luteus. Put plainly: Antimicrobial activity against Micrococcus luteus ATCC 4698 after 24 hr by broth dilution method. As to conditions: ATCC 4698, 24 h.
Experiment [20] concerns Klebsiella pneumoniae. Put plainly: Antimicrobial activity against Klebsiella pneumoniae ATCC 13883 after 24 hr by broth dilution method. Conditions: ATCC 13883, 24 h.
Experiment [21] deals with Fusarium solani. As to the kind of experiment: Antimicrobial activity against Fusarium solani ATCC 38136 after 24 hr by broth dilution method. As to conditions: ATCC 38136, 24 h.
For experiment [22], the system named is Microsporum canis. As to the kind of experiment: Antimicrobial activity against Arthroderma otae ATCC 11622 after 24 hr by broth dilution method. Conditions: ATCC 11622, 24 h.
Experiment [23] deals with Bacillus cereus. Put plainly: Antimicrobial activity against Bacillus cereus ATCC 11778 after 24 hr by broth dilution method. As to conditions: ATCC 11778, 24 h.
Experiment [24] has as its system Aspergillus awamori. As to the kind of experiment: Antimicrobial activity against Aspergillus awamori ATCC 22342 after 24 hr by broth dilution method. As to conditions: ATCC 22342, 24 h.

With `O=C1Nc2ccc(Cl)cc2/C1=N/N1C(=O)C(Cl)C1c1ccccc1` (stereo unspecified), the MIC was found to be 18.8 µg/mL (≈ 52.1 µM) in experiment [1]; 75 µg/mL (≈ 208 µM) in [2]; 37.5 µg/mL (≈ 104 µM) in experiment [3]; 37.5 µg/mL (≈ 104 µM) in [4]; 75 µg/mL (≈ 208 µM) in [5]; 18.8 µg/mL (≈ 52.1 µM) in experiment [6]. For the same molecule, the MIC in experiment [7], in experiment [8], in experiment [9], in experiment [10], in experiment [11] and in experiment [12] was 37.5 µg/mL (≈ 104 µM) in each case. Moreover, the MIC came to 18.8 µg/mL (≈ 52.1 µM) in [13]; 75 µg/mL (≈ 208 µM) in experiment [14]; 37.5 µg/mL (≈ 104 µM) in experiment [15]; 18.8 µg/mL (≈ 52.1 µM) in experiment [16]; 37.5 µg/mL (≈ 104 µM) in experiment [17]; 18.8 µg/mL (≈ 52.1 µM) in experiment [18]. The MIC in experiment [19] is 37.5 µg/mL (≈ 104 µM); in experiment [20], 37.5 µg/mL (≈ 104 µM); in experiment [21] it was 18.8 µg/mL (≈ 52.1 µM); in experiment [22] it was 37.5 µg/mL (≈ 104 µM); in [23], 37.5 µg/mL (≈ 104 µM); in experiment [24] it was 37.5 µg/mL (≈ 104 µM).
Regarding `O=C1Nc2ccc(Cl)cc2/C1=N/N1C(=O)C(Cl)C1c1ccccc1Cl` (stereo unspecified), the MIC was found to be 150 µg/mL (≈ 380 µM) in experiment [1]; 300 µg/mL (≈ 760 µM) in [2]; 150 µg/mL (≈ 380 µM) in [3]; 150 µg/mL (≈ 380 µM) in experiment [4]; 300 µg/mL (≈ 760 µM) in experiment [5]; 150 µg/mL (≈ 380 µM) in experiment [6]. Besides, the MIC worked out at 300 µg/mL (≈ 760 µM) in experiment [7]; 300 µg/mL (≈ 760 µM) in experiment [8]; 150 µg/mL (≈ 380 µM) in [9]; 150 µg/mL (≈ 380 µM) in experiment [10]; 150 µg/mL (≈ 380 µM) in experiment [11]; 75 µg/mL (≈ 190 µM) in [12]. Further, the MIC in experiment [13] stood at 150 µg/mL (≈ 380 µM); in experiment [14], 300 µg/mL (≈ 760 µM); in experiment [15] it was 300 µg/mL (≈ 760 µM); in experiment [16] it was 150 µg/mL (≈ 380 µM); in [17] it was 150 µg/mL (≈ 380 µM); in experiment [18] it was 150 µg/mL (≈ 380 µM). Also, the MIC in experiment [19] stood at 150 µg/mL (≈ 380 µM); in experiment [20] it was 300 µg/mL (≈ 760 µM); in [21], 150 µg/mL (≈ 380 µM); in [22], 75 µg/mL (≈ 190 µM); in experiment [23] it was 300 µg/mL (≈ 760 µM); in experiment [24], 150 µg/mL (≈ 380 µM).
Regarding `O=C1Nc2ccc(Cl)cc2/C1=N/N1C(=O)C(Cl)C1c1ccc(Cl)cc1` (stereo unspecified), the MIC in experiment [1] came to 4.68 µg/mL (≈ 11.9 µM); in [2] it was 18.8 µg/mL (≈ 47.5 µM); in [3], 9.37 µg/mL (≈ 23.7 µM); in experiment [4], 9.37 µg/mL (≈ 23.7 µM); in experiment [5] it was 9.37 µg/mL (≈ 23.7 µM); in experiment [6] it was 9.37 µg/mL (≈ 23.7 µM). The minimal inhibitory concentration (MIC) in [7] came to 18.8 µg/mL (≈ 47.5 µM); in [8] it was 18.8 µg/mL (≈ 47.5 µM); in experiment [9] it was 4.68 µg/mL (≈ 11.9 µM); in experiment [10], 18.8 µg/mL (≈ 47.5 µM); in experiment [11], 18.8 µg/mL (≈ 47.5 µM); in experiment [12] it was 4.68 µg/mL (≈ 11.9 µM). Moreover, the minimum inhibitory concentration (MIC) in experiment [13] was determined as 9.37 µg/mL (≈ 23.7 µM); in experiment [14] it was 9.37 µg/mL (≈ 23.7 µM); in [15], 9.37 µg/mL (≈ 23.7 µM); in [16], 9.37 µg/mL (≈ 23.7 µM); in experiment [17], 4.68 µg/mL (≈ 11.9 µM); in experiment [18], 4.68 µg/mL (≈ 11.9 µM). In addition, the minimum inhibitory concentration (MIC) in experiment [19] stood at 18.8 µg/mL (≈ 47.5 µM); in experiment [20], 9.37 µg/mL (≈ 23.7 µM); in experiment [21], 4.68 µg/mL (≈ 11.9 µM); in [22], 9.37 µg/mL (≈ 23.7 µM); in experiment [23] it was 18.8 µg/mL (≈ 47.5 µM); in experiment [24], 4.68 µg/mL (≈ 11.9 µM).
As to `COc1cccc(C2C(Cl)C(=O)N2/N=C2\C(=O)Nc3ccc(Cl)cc32)c1` (stereo unspecified), the MIC in [1] is 37.5 µg/mL (≈ 96.1 µM); in experiment [2] it was 75 µg/mL (≈ 192 µM); in experiment [3] it was 75 µg/mL (≈ 192 µM); in [4] it was 75 µg/mL (≈ 192 µM); in experiment [5], 75 µg/mL (≈ 192 µM); in [6], 18.8 µg/mL (≈ 48 µM). For the same molecule, the MIC turned out to be 37.5 µg/mL (≈ 96.1 µM) in [7]; 75 µg/mL (≈ 192 µM) in experiment [8]; 18.8 µg/mL (≈ 48 µM) in experiment [9]; 75 µg/mL (≈ 192 µM) in [10]; 37.5 µg/mL (≈ 96.1 µM) in experiment [11]; 18.8 µg/mL (≈ 48 µM) in experiment [12]. The MIC in [13] amounted to 18.8 µg/mL (≈ 48 µM); in experiment [14] it was 75 µg/mL (≈ 192 µM); in experiment [15], 75 µg/mL (≈ 192 µM); in [16], 18.8 µg/mL (≈ 48 µM); in [17], 18.8 µg/mL (≈ 48 µM); in [18], 37.5 µg/mL (≈ 96.1 µM). For the same molecule, the minimal inhibitory concentration (MIC) in experiment [19], in [20], in experiment [21], in experiment [22], in experiment [23] and in experiment [24] was 37.5 µg/mL (≈ 96.1 µM) in each case.
